# Data from ChEMBL document CHEMBL1151133, “Plant metabolites. Structure and in vitro antiviral activity of quinovic acid glycosides from Uncaria tomentosa and Guettarda platypoda” (J Nat Prod, 1989).
# Assays:
# [1] = test system: Vesicular stomatitis Indiana virus; test: Antiviral activity against Vesicular stomatitis Indiana virus infected in golden hamster CER cells assessed as reduction in virus plaque formation after 36 to 48 hrs; assay type: functional
# [2] = Cytotoxicity against golden hamster CER cells after 2 days by neutral red uptake assay; assay type: cell-based, Mesocricetus auratus; settings: read-out: TC50
# [3] = Cytotoxicity against human HeLa cells assessed as maximum non-toxic drug level after 2 days by neutral red uptake assay; assay type: cell-based; settings: read-out: MNCC
# rhinovirus A1B [4] = test: Antiviral activity against HRV1B infected in human HeLa cells assessed as reduction in virus-induced cytopathic effect at 30 ug/ml; assay type: functional, Human rhinovirus 1B; parameters: scale not given: the % may be the effect or the level left
# rhinovirus A1B [5] = test: Antiviral activity against HRV1B infected in human HeLa cells assessed as reduction in virus-induced cytopathic effect at 20 ug/ml; assay type: functional, Human rhinovirus 1B; parameters: scale not given: the % may be the effect or the level left
smiles,measurement,setting,value
C[C@H]1[C@H](C)CC[C@]2(C(=O)O[C@@H]3O[C@H](CO)[C@@H](O)[C@H](O)[C@H]3O)CC[C@]3(C(=O)O)C(=CC[C@@H]4[C@@]5(C)CC[C@H](O[C@@H]6O[C@H](CO)[C@@H](O)[C@H](O)[C@H]6O)C(C)(C)[C@@H]5CC[C@]43C)[C@H]12,MIC50,[1],40 µM
same,CC50 at 48 h,[2],150 µg/mL
same,MNTC at 48 h,[3],100 µg/mL
same,Activity,rhinovirus A1B [4],50%
same,Activity,rhinovirus A1B [5],50%
C[C@H]1[C@H](C)CC[C@]2(C(=O)O)CC[C@]3(C(=O)O)C(=CC[C@@H]4[C@@]5(C)CC[C@H](O[C@@H]6O[C@H](CO)[C@@H](O)[C@H](O)[C@H]6O)C(C)(C)[C@@H]5CC[C@]43C)[C@H]12,MIC50,[1],51 µM
same,CC50 at 48 h,[2],150 µg/mL
C[C@H]1[C@H](C)CC[C@]2(C(=O)O)CC[C@]3(C(=O)O[C@@H]4O[C@H](CO)[C@@H](O)[C@H](O)[C@H]4O)C(=CC[C@@H]4[C@@]5(C)CC[C@H](O[C@@H]6O[C@H](CO)[C@@H](O)[C@H](O)[C@H]6O)C(C)(C)[C@@H]5CC[C@]43C)[C@H]12,MIC50,[1],87 µM
same,CC50 at 48 h,[2],150 µg/mL
C[C@H]1[C@H](C)CC[C@]2(C(=O)O[C@@H]3O[C@H](CO)[C@@H](O)[C@H](O)[C@H]3O)CC[C@]3(C(=O)O)C(=CC[C@@H]4[C@@]5(C)CC[C@H](O[C@@H]6O[C@H](C)[C@H](O)[C@H](O[C@@H]7O[C@H](CO)[C@@H](O)[C@H](O)[C@H]7O)[C@H]6O)C(C)(C)[C@@H]5CC[C@]43C)[C@H]12,MIC50,[1],42 µM
same,CC50 at 48 h,[2],80 µg/mL
C[C@H]1[C@H](C)CC[C@]2(C(=O)O)CC[C@]3(C(=O)O)C(=CC[C@@H]4[C@@]5(C)CC[C@H](O[C@@H]6O[C@H](C)[C@H](O)[C@H](O[C@@H]7O[C@H](CO)[C@@H](O)[C@H](O)[C@H]7O)[C@H]6O)C(C)(C)[C@@H]5CC[C@]43C)[C@H]12,MIC50,[1],25 µM
same,CC50 at 48 h,[2],100 µg/mL
C[C@H]1[C@H](C)CC[C@]2(C(=O)O)CC[C@]3(C(=O)O[C@@H]4O[C@H](CO)[C@@H](O)[C@H](O)[C@H]4O)C(=CC[C@@H]4[C@@]5(C)CC[C@H](O[C@@H]6O[C@H](C)[C@H](O)[C@H](O[C@@H]7O[C@H](CO)[C@@H](O)[C@H](O)[C@H]7O)[C@H]6O)C(C)(C)[C@@H]5CC[C@]43C)[C@H]12,MIC50,[1],63 µM
same,CC50 at 48 h,[2],100 µg/mL
C[C@H]1[C@H](C)CC[C@]2(C(=O)O[C@@H]3O[C@H](CO)[C@@H](O)[C@H](O)[C@H]3O)CC[C@]3(C(=O)O)C(=CC[C@@H]4[C@@]5(C)CC[C@H](O[C@@H]6O[C@H](C)[C@@H](O)[C@H](O)[C@H]6O)C(C)(C)[C@@H]5CC[C@]43C)[C@H]12,MIC50,[1],28 µM
same,CC50 at 48 h,[2],80 µg/mL
C[C@H]1[C@H](C)CC[C@]2(C(=O)O[C@@H]3O[C@H](CO)[C@@H](O)[C@H](O)[C@H]3O)CC[C@]3(C(=O)O)C(=CC[C@@H]4[C@@]5(C)CC[C@H](O[C@@H]6O[C@H](C)[C@H](O)[C@H](O)[C@H]6O)C(C)(C)[C@@H]5CC[C@]43C)[C@H]12,MIC50,[1],40 µM
same,CC50 at 48 h,[2],80 µg/mL
